Molecules are shown by their SMILES. pIC50: −log10 of the molar value. In brackets after ≈: the same amount, converted by molar mass. Several values for one entry are separate records, joined by “and”; a condition that tells them apart may be missing. Equal values may be shown once.

One assay deals with A549. The assay is described as follows: Compound was tested for cytotoxic activity against A-549 human lung carcinoma (ATCC:CCL-185). In kind it is functional, cell-based.
Assay [1] relates to P388. The assay is described as follows: Compound was tested for cytotoxic activity against P-388D1 mouse lymphoma (ATCC:CCL-46). It is filed as functional, cell-based.
The subject of a further assay is SK-MEL-28. Kind of assay: Compound was tested for cytotoxic activity against SK-MEL-28 human melanoma (ATCC:HTB-72). It is filed as functional, cell-based.
The species entered for another assay is Homo sapiens. Kind of assay: (§1) Compound was tested for cytotoxic activity against […] human colon carcinoma (ATCC:HTB-38). It is filed as functional.
The test system of the next assay is HT-29. The description is as §1. In kind it is functional, cell-based.
Assay [2] deals with P388. The assay is described as follows: Compound was tested for cytotoxic activity against P-388D1 mouse lymphoma (ATCC: CCL-46). It is filed as functional, cell-based.

As for `COC(=O)[C@]1(C)CC[C@]2(C)CC[C@]3(C)C4CC(=O)c5c(cc(O)c(O)c5C=O)[C@]4(C)CC[C@@]3(C)C2C1` (stereo partly specified), the IC50 (usually the concentration needed to halve the response being measured) in the assay on A549 is 0.5 µg/mL and 1 µM; in the assay on P388 [1] it was 0.5 µg/mL (≈ 1.01 µM); in the assay with SK-MEL-28, 0.5 µg/mL and 1 µM; in the assay with HT-29, 1 µg/mL (≈ 2.01 µM). Further, the pIC50 – broadly, −log10 of the IC50, conventionally taken in molar units – in the assay filed under Homo sapiens is 5.70; in the assay on P388 [2], 6.00.
On to `COC(=O)[C@]1(C)CC[C@]2(C)CC[C@]3(C)C4CC(=O)c5c(cc(OC(C)=O)c(OC(C)=O)c5C=O)[C@]4(C)CC[C@@]3(C)C2C1` (stereo partly specified), for which the IC50 was 0.25 µg/mL and 400 nM in the assay with A549; 0.25 µg/mL (≈ 0.431 µM) with P388 [1]; 0.25 µg/mL and 400 nM in the assay on SK-MEL-28; 0.25 µg/mL and 400 nM in the assay with HT-29. In the assay on P388 [2], this molecule showed a pIC50 of 6.40.
Take `C[C@@H]1CC2[C@]3(C)CCC4(C)C(=CC(=O)c5c4cc(O)c(O)c5C(=O)O)[C@@]3(C)CC[C@@]2(C)[C@H](O)C1=O` (single isomer, unassigned): the IC50 with A549 is 2.5 µg/mL and 5.2 µM; with P388 [1], 2.5 µg/mL (≈ 5.18 µM); in the assay with SK-MEL-28, 2.5 µg/mL and 5.2 µM; in the assay on HT-29 it was 2.5 µg/mL and 5.2 µM. The molecule also had a pIC50 in the assay on P388 [2] of 5.28.
`COc1c(O)cc2c(c1C(=O)O)C(=O)C=C1C2(C)CC[C@@]2(C)C3C[C@@H](C)C(=O)[C@@H](O)[C@]3(C)CC[C@]12C` (single isomer, unassigned): the IC50 with A549 was 10 µg/mL and 20.7 µM; with P388 [1], 10 µg/mL (≈ 20.1 µM); in the assay with SK-MEL-28, 10 µg/mL and 20.7 µM; with HT-29 it was 10 µg/mL and 20.7 µM. For the same molecule, in the assay on P388 [2], the pIC50 is 4.68.
As to `CC1=C(O)C(=O)C=C2C1=CC(O)[C@H]1[C@@]2(C)CC[C@@]2(C)C3C[C@@H](C)C(=O)[C@@H](O)[C@]3(C)CC[C@]12C` (single isomer, unassigned), the IC50 in the assay with A549 was 1 µg/mL and 2 µM; in the assay with P388 [1], 0.5 µg/mL (≈ 1.1 µM); with SK-MEL-28, 1 µg/mL and 2 µM; in the assay with HT-29, 1 µg/mL and 2 µM. In the assay on P388 [2], this molecule had a pIC50 of 6.00.

The values above are taken from ChEMBL document CHEMBL1133156, “Macrocarpins A-D, new cytotoxic nor-triterpenes from Maytenus macrocarpa” (Bioorg Med Chem Lett, 2000).
